Data: US10828315B2 (Madrigal Pharmaceuticals, Inc., priority 2013, dated 2020)
Like-named read-outs stand apart in the source and are kept apart here.

How the values were obtained:
[1] = Mouse plasma stability protocol, up to 1 h (Examples 16-18); details: % Remaining of parent after 1 h incubation in mouse plasma at 37° C. (10 μM)
Experimental: 150 ng/mL solution of SDC-TRAP-0002 in methanol was prepared using the internal standard spiking solution. This solution was used to precipitate all plasma samples in the study. 200 μL was pipetted into a 96 deepwell plate over dry ice. 10 μL of 1 mM stock in DMSO was added to a 1.5 mL microfuge tube, then 990 μL of plasma. Samples were mixed by vortex, then 50 μL of each sample was added in triplicate to a 96-well plate containing internal standard solution. This was designated the 0 hour time point sample. 250 μL of the remaining plasma sample was added to each of four 96 deepwell plates—one per time point. Samples were incubated at 37° C. with gentle shaking for 0.25, 0.5, and 1 hour. After each time point, one plate of each sample was removed from the shaker and placed on wet ice for approximately 2 minutes. 50 μL at plasma aliquots (in triplicate) were added to the deepwell plate containing internal standard solution. After the last time point was extracted, the 96 deepwell plate was vortexed, then centrifuged at 2-8° C. 150 μL of supernatant was collected and 25 μL at of water was added. Samples were mixed and analyzed by LC-MS/MS.
990 μL mouse plasma aliquots from a common stock were spiked with 10 μL of 1 mM stock of one of seven SDC-TRAP samples identified in the table below. Each sample was mixed and divided into 250 μL aliquots, each representing time points 0, 15 minutes, 30 minutes or 1 hour. At the prescribed time point, 3×50 μL samples were each mixed with 200 μL of methanol containing internal standard and held on dry ice until all time point samples were extracted. The samples collectively were vortex mixed for 1.5 minutes at 1500 rpm, then centrifuged at 4400 rpm for 10 minutes at 8° C.

[2] = system: human urinary bladder cancer cell line RT-112; test: Cytotoxicity assay (CellTiter-Glo, 72 h), RT-112; type: cell-based; details: RT-112, 72 h, read-out: Cytotoxicity (IC50, nM) RT-112
Experimental: (§1) Cytotoxicity of SDC-TRAP molecules was determined in three cancer cell lines. […] 80 μL of CellTiter-Glo was added to each well, followed by room temperature incubation in the dark for 15 minutes. Cell was determined by luminescence. IC50 was calculated using XLfit™ software.

[3] = system: HER2; test: HER2 degradation assay with BT-474 cell line (Example 12, FACS); type: cell-based, human
[4] = in vivo; details: female, SCID, mouse
[5] = system: human urinary bladder cancer cell line SW780; test: Cytotoxicity assay (CellTiter-Glo, 72 h), SW780; type: cell-based; details: SW780, 72 h, read-out: Cytotoxicity (IC50, nM) SW-780
Experimental: as §1

[6] = system: human breast cancer cell line BT-474; test: Cytotoxicity assay (CellTiter-Glo, 72 h), BT-474; type: cell-based; details: BT-474, 72 h, read-out: Cytotoxicity (IC50, nM) BT-474
Experimental: as §1

[7] = Tissue Distribution Data for SDC-TRAP-0171, Time (h) 0.083
[8] = Tissue Distribution Data for SDC-TRAP-0171, Time (h) 1
[9] = Tissue Distribution Data for SDC-TRAP-0171, Time (h) 6
[10] = Tissue Distribution Data for SDC-TRAP-0171, Time (h) 24
[11] = Tissue Distribution Data for SDC-TRAP-0171, Time (h) 48

In the case of CC(C)c1cc(-c2nnc(O)n2-c2ccc(CN3CCN(C(=O)Oc4ccc(COC(=O)Nc5cccc6c5CN(C5CCC(=O)NC5=O)C6=O)cc4)CC3)c(F)c2)c(O)cc1O (stereo not drawn) [SDC-TRAP-0171, 4-((((2-(2,6-dioxopiperidin-3-yl)-1-oxoisoindolin-4-yl)carbamoyl)oxy)methyl)phenyl-4-(4-(3-(2,4-dihydroxy-5-isopropylphenyl)-5-hydroxy-4H-1,2,4-triazol-4-yl)-2-fluorobenzyl)piperazine-1-carboxylate], the “% Remaining (1 h)” value [1] is reported as 17.7%, the IC50 [2] is reported as 20 nM and the IC50 [3] is reported as 199 nM. For the same molecule, the “Plasma Conc.” value [7] was 618 µM, the “Tumor Conc.” value [7] was 0.083 nmol/g of tissue and the “Tumor/Plasma Ratio” value [7] was 0.0164. The “Plasma Conc.” value [8] was 32.2 µM, the “Tumor Conc.” value [8] was 1 nmol/g of tissue and the “Tumor/Plasma Ratio” value [8] was 0.249. For the same molecule, the “Plasma Conc.” value [9] was 1.21 µM, the “Tumor Conc.” value [9] was 6 nmol/g of tissue and the “Tumor/Plasma Ratio” value [9] was 3.10. The “Plasma Conc.” value [10] was 0.00162 µM, the “Tumor Conc.” value [10] was 24 nmol/g of tissue and the “Tumor/Plasma Ratio” value [10] was 407. For the same molecule, the “Plasma Conc.” value [11] was “BQL”, the “Tumor Conc.” value [11] was 48 nmol/g of tissue and the “Tumor Conc.” value (Tissue Distribution Data for SDC-TRAP-0178, Time (h) 0.083) was 16.4 nmol/g of tissue. The “Tumor Conc.” value (Tissue Distribution Data for SDC-TRAP-0178, Time (h) 1) was 12.8 nmol/g of tissue, the “Tumor Conc.” value (Tissue Distribution Data for SDC-TRAP-0178, Time (h) 6) was 7.17 nmol/g of tissue and the “Tumor Conc.” value (Tissue Distribution Data for SDC-TRAP-0178, Time (h) 24) was 2.81 nmol/g of tissue. For the same molecule, the “Tumor Conc.” value (Tissue Distribution Data for SDC-TRAP-0178, Time (h) 48) was 1.01 nmol/g of tissue, the Kp at 1 h [4] was 0.0589 and the Kp at 6 h [4] was 1.59. The Kp at 24 h [4] was 100, the Kp at […] [4] was 0.0179 and the concentration at 1 h [4] was 217 µM. The concentration at 6 h [4] was 4.51 µM, the concentration at 24 h [4] was 0.028 µM and the concentration at 48 h [4] was 0.241 µM. For the same molecule, the concentration at […] [4] was 918 µM, the IC50 [5] was 275 nM and the IC50 [6] was 58 nM.
